Reference: US20150307461A1, “ANTIVIRAL COMPOUNDS” (priority 2012, published 2015)

Tests used:
Assay in all cases: microbe, parasite or virus in culture
[1] = test system: Pseudotyped HCV GT1b particles (HCVpp); assay type: cell-based, HCV GT1b Con1 strain; details: Hepatitis C virus, 72 h, read-out: HCVpp GT-1b (EC50, μM)
[2] = test system: pseudotyped VSV G particles (VSVpp); assay type: cell-based; details: Vesicular stomatitis virus, 72 h, read-out: VSVpp (EC50, μM)
[3] = test system: Pseudotyped HCV GT1a particles (HCVpp); assay type: cell-based, HCV GT1a H77 strain; details: Hepatitis C virus, 72 h, read-out: HCVpp GT-1a (EC50, μM)

For `Nc1nc(Nc2cc(F)c(Br)c(Cl)c2)n[nH]1` [Compound I-5, N^3-(4-Bromo-3-chloro-5-fluoro-phenyl)-1H-[1,2,4]triazole-3,5-diamine], which EC50 [1] is on record?
Its EC50 is 0.536 µM.

What about the EC50 [2] of the same compound?
Its EC50 is 45.5 µM.

Which EC50 [2] does the source give for `CN(c1cc(Cl)c(Cl)c(Cl)c1)c1n[nH]c(N)n1` [Compound I-27, N*3*-Methyl-N*3*-(3,4,5-trichloro-phenyl)-1H-[1,2,4]triazole-3,5-diamine] here?
Its EC50 is 94.4 µM.

And the EC50 [3]?
The EC50 was 21.1 µM.

Which results are given for `CN(c1cc(Cl)cc(Cl)c1)c1n[nH]c(N)n1` [Compound I-28, N*3*-(3,5-Dichloro-phenyl)-N*3*-methyl-1H-[1,2,4]triazole-3,5-diamine]?
EC50 [2]: 100 µM; EC50 [3]: 82.8 µM

What does the source list for `Nc1nc(N(Cc2ccccc2)c2cc(Cl)cc(Cl)c2)n[nH]1` [Compound I-29, N*3*-Benzyl-N*3*-(3,5-dichloro-phenyl)-1H-[1,2,4]triazole-3,5-diamine]?
EC50 [2]: 7.5 µM; EC50 [3]: 6.49 µM

Which EC50 [2] does the source give for `N#CCN(c1cc(Cl)cc(Cl)c1)c1n[nH]c(N)n1` [Compound I-30, [(5-Amino-1H-[1,2,4]triazol-3-yl)-(3,5-dichloro-phenyl)-amino]-acetonitrile] here?
The EC50 was 100 µM.

What about the EC50 [3] of the same compound?
The EC50 was 14.5 µM.

`Nc1nc(Nc2cccc(C(=O)O)c2)n[nH]1` [Compound I-31, 3-(5-Amino-1H-[1,2,4]triazol-3-ylamino)-benzoic acid] was tested. Which EC50 [2] did it give?
Its EC50 is 100 µM.

What about the EC50 [3] of the same compound?
The EC50 was 100 µM.

What does the source list for `CS(=O)(=O)Nc1cccc(Nc2n[nH]c(N)n2)c1` [Compound I-33, N-[3-(5-Amino-1H-[1,2,4]triazol-3-ylamino)-phenyl]-methanesulfonamide]?
EC50 [2]: 100 µM; EC50 [3]: 100 µM

With `N#Cc1ccc(Nc2n[nH]c(N)n2)cc1S(=O)(=O)C(F)(F)F` [Compound I-34, 4-(5-Amino-1H-[1,2,4]triazol-3-ylamino)-2-trifluoromethanesulfonyl-benzonitrile] as the compound, how does the EC50 [2] read?
The EC50 was over 1 µM.

And the EC50 [3]?
Its EC50 is 0.2 µM.

Which results are given for `Nc1nc(Nc2ccc(Br)c(Cl)c2)n[nH]1` [Compound I-40, N*3*-(4-Bromo-3-chloro-phenyl)-1H-[1,2,4]triazole-3,5-diamine]?
EC50 [1]: 3.29 µM; EC50 [2]: 45.7 µM

What does the source list for `Nc1nc(Nc2cc(Cl)cc(Cl)c2)n[nH]1` [Compound I-41, 3-Amino-5-(3,5-Dichloroanilino)-S-triazole]?
EC50 [1]: 1.61 µM; EC50 [3]: 0.138 µM

Which results are given for `Nc1nc(Nc2cc(Cl)c(S(=O)(=O)N3CCOCC3)c(Cl)c2)n[nH]1` [Compound I-44, N3-(3,5-dichloro-4-(morpholinosulfonyl)phenyl)-1H-1,2,4-triazole-3,5-diamine]?
EC50 [1]: 0.545 µM; EC50 [2]: 100 µM

How did the EC50 [1] turn out when `Nc1n[nH]c(Nc2cc(F)c(Br)c(C(F)(F)F)c2)n1` [Compound I-45, N^5-(4-bromo-3-fluoro-5-trifluoromethylphenyl)-1H-[1,2,4]-triazole-3,5-diamine] was run?
The EC50 was 0.095 µM.

What about the EC50 [2] of the same compound?
The EC50 was 82.5 µM.

Which results are given for `Nc1n[nH]c(Nc2cc(F)c(Br)c(F)c2)n1` [Compound I-46, N^5-(4-Bromo-3,5-difluoro-phenyl)-1H-[1,2,4]triazole-3,5-diamine]?
EC50 [1]: 1.18 µM; EC50 [2]: 100 µM

For `N#Cc1ccc(Nc2n[nH]c(N)n2)cc1` [Compound I-47, 4-(5-Amino-1H-[1,2,4]triazol-3-ylamino)-benzonitrile], which EC50 [2] is on record?
The EC50 was 100 µM.

And the EC50 [3]?
Its EC50 is 19.6 µM.

`Nc1nc(Nc2cccc(Cl)c2Cl)n[nH]1` [Compound I-49, N^3-(2,3-Dichloro-phenyl)-1H-[1,2,4]triazole-3,5-diamine] was tested. Which EC50 [2] did it give?
The EC50 was 100 µM.

And the EC50 [3]?
Its EC50 is 100 µM.

What does the source list for `Nc1nc(Nc2cccc(C(F)(F)F)c2F)n[nH]1` [Compound I-53, N^3-(2-Fluoro-3-trifluoromethyl-phenyl)-1H-[1,2,4]triazole-3,5-diamine]?
EC50 [2]: 100 µM; EC50 [3]: 100 µM

Which results are given for `Nc1nc(Nc2cccc(CC(F)(F)F)c2)n[nH]1` [Compound I-55, N^3-[3-(2,2,2-Trifluoro-ethyl)-phenyl]-1H-[1,2,4]triazole-3,5-diamine]?
EC50 [2]: 100 µM; EC50 [3]: 10.3 µM

`Nc1nc(Nc2cccc(C(=O)c3ccccc3)c2)n[nH]1` [Compound I-58, [3-(5-Amino-1H-[1,2,4]triazol-3-ylamino)-phenyl]-phenyl-methanone] was tested. Which EC50 [3] did it give?
The EC50 was 4.08 µM.

With `N#CC1(c2cccc(Nc3n[nH]c(N)n3)c2)CC1` [Compound I-59, 1-[3-(5-Amino-1H-[1,2,4]triazol-3-ylamino)-phenyl]-cyclopropanecarbonitrile] as the compound, how does the EC50 [2] read?
Its EC50 is 100 µM.

And the EC50 [3]?
The EC50 was 1.46 µM.

With `Nc1nc(Nc2cc(F)cc(Cl)c2)n[nH]1` [Compound I-61, N^3-(3-Chloro-5-fluoro-phenyl)-1H-[1,2,4]triazole-3,5-diamine] as the compound, how does the EC50 [1] read?
The EC50 was 0.331 µM.

What about the EC50 [2] of the same compound?
Its EC50 is over 10 µM.

How did the EC50 [1] turn out when `CNC(=O)Nc1ccc(Nc2n[nH]c(N)n2)cc1Cl` [Compound I-62, 1-[4-(5-Amino-1H-[1,2,4]triazol-3-ylamino)-2-chloro-phenyl]-3-methyl-urea] was run?
Its EC50 is 100 µM.

What about the EC50 [2] of the same compound?
Its EC50 is 100 µM.

What does the source list for `COC(=O)c1c(Cl)cc(Nc2n[nH]c(N)n2)cc1Cl` [Compound I-63, 4-(5-Amino-1H-[1,2,4]triazol-3-ylamino)-2,6-dichloro-benzoic acid methyl ester]?
EC50 [1]: 1.74 µM; EC50 [2]: 100 µM

For `Nc1nc(Nc2cc(Cl)c(C(=O)Nc3ccccc3)c(Cl)c2)n[nH]1` [Compound I-64, 4-(5-Amino-1H-[1,2,4]triazol-3-ylamino)-2,6-dichloro-N-phenyl-benzamide], which EC50 [1] is on record?
The EC50 was 4.09 µM.

What about the EC50 [2] of the same compound?
Its EC50 is 8.6 µM.

With `Nc1nc(Nc2cc(Cl)c(C(=O)N3CCCC3)c(Cl)c2)n[nH]1` [Compound I-65, [4-(5-Amino-1H-[1,2,4]triazol-3-ylamino)-2,6-dichloro-N-phenyl]-pyrrolidin-1-yl-methanone] as the compound, how does the EC50 [1] read?
The EC50 was 3.67 µM.

And the EC50 [2]?
The EC50 was 100 µM.

Which results are given for `CS(=O)(=O)c1cccc(NC(=O)c2c(Cl)cc(Nc3n[nH]c(N)n3)cc2Cl)c1` [Compound I-66, 4-(5-Amino-1H-[1,2,4]triazol-3-ylamino)-2,6-dichloro-N-(3-methanesulfonyl-phenyl)-benzamide]?
EC50 [1]: 4.99 µM; EC50 [2]: 100 µM

`C=Cc1c(Cl)cc(Nc2n[nH]c(N)n2)cc1Cl` [Compound I-67, N^3-(3,5-Dichloro-4-vinyl-phenyl)-1H-[1,2,4]triazole-3,5-diamine] was tested. Which EC50 [1] did it give?
The EC50 was 0.685 µM.

What about the EC50 [2] of the same compound?
Its EC50 is 100 µM.

`N#Cc1c(F)cc(Nc2nc(N)n[nH]2)cc1C(F)(F)F` [Compound I-68, 4-(5-Amino-2H-[1,2,4]triazol-3-ylamino)-2-fluoro-6-trifluoromethyl-benzonitrile] was tested. Which EC50 [1] did it give?
The EC50 was 0.161 µM.

What about the EC50 [2] of the same compound?
Its EC50 is 43.3 µM.

What does the source list for `N#Cc1c(F)cc(Nc2nc(N)n[nH]2)cc1F` [Compound I-69, 4-(5-Amino-2H-[1,2,4]triazol-3-ylamino)-2-difluoro-benzonitrile]?
EC50 [1]: 0.561 µM; EC50 [2]: 100 µM

What does the source list for `Cn1nc(N)nc1Nc1cccc(S(F)(F)(F)(F)F)c1` [Compound I-71, 1-Methyl-N*5*-(3-pentafluorosulfur-phenyl)-1H-[1,2,4]triazole-3,5-diamine]?
EC50 [2]: 100 µM; EC50 [3]: 100 µM

`Nc1nc(Nc2cccc(S(F)(F)(F)(F)F)c2)n(C2CCCCC2)n1` [Compound I-72, Cyclohexyl-N*5*-(3-pentafluorosulfur-phenyl)-1H-[1,2,4]triazole-3,5-diamine] was tested. Which EC50 [2] did it give?
The EC50 was 68.3 µM.

And the EC50 [3]?
The EC50 was 36.1 µM.

How did the EC50 [2] turn out when `Cn1nc(N)nc1Nc1cc(F)cc(S(F)(F)(F)(F)F)c1` [Compound I-74, N*5*-(3-Fluoro-5-pentafluorosulfur-phenyl)-1-methyl-1H-[1,2,4]triazole-3,5-diamine] was run?
The EC50 was 100 µM.

And the EC50 [3]?
Its EC50 is 34.3 µM.

With `Nc1nc(Nc2ccc(S(F)(F)(F)(F)F)cc2)n[nH]1` [Compound I-75, N*3*-(4-pentafluorosulfur-phenyl)-1H-[1,2,4]triazole-3,5-diamine] as the compound, how does the EC50 [2] read?
Its EC50 is 100 µM.

And the EC50 [3]?
The EC50 was 14.3 µM.

For `Cc1ccc(Nc2n[nH]c(N)n2)cc1Cl` [Compound I-76, N^3-(3-Chloro-4-methyl-phenyl)-1H-[1,2,4]triazole-3,5-diamine], which EC50 [2] is on record?
Its EC50 is 100 µM.

What about the EC50 [3] of the same compound?
Its EC50 is 0.791 µM.

For `CN(C)C(=O)c1ccc(Nc2n[nH]c(N)n2)cc1Cl` [Compound I-78, 4-(5-Amino-1H-[1,2,4]triazol-3-ylamino)-2-chloro-N,N-dimethyl-benzamide], which EC50 [2] is on record?
The EC50 was 100 µM.

What about the EC50 [3] of the same compound?
The EC50 was 32.1 µM.

How did the EC50 [1] turn out when `Nc1nc(Nc2ccc(Br)c(S(F)(F)(F)(F)F)c2)n[nH]1` [Compound I-81, N*3*-(4-Bromo-3-pentafluorosulfur-phenyl)-1H-[1,2,4]triazole-3,5-diamine] was run?
The EC50 was 0.527 µM.

What about the EC50 [2] of the same compound?
Its EC50 is 34 µM.

What does the source list for `Nc1nc(Nc2cc(Br)cc(S(F)(F)(F)(F)F)c2)n[nH]1` [Compound I-82, N*3*-(3-Bromo-5-pentafluorosulfur-phenyl)-1H-[1,2,4]triazole-3,5-diamine]?
EC50 [1]: 0.918 µM; EC50 [2]: 57.5 µM

For `N#CCc1c(Cl)cc(Nc2n[nH]c(N)n2)cc1C(F)(F)F` [Compound I-84, 2-(4-(5-amino-1H-1,2,4-triazol-3-ylamino)-2-chloro-6-(trifluoromethyl)phenyl)acetonitrile], which EC50 [1] is on record?
The EC50 was 0.628 µM.

And the EC50 [2]?
The EC50 was 42.1 µM.

Which results are given for `N#Cc1ccc(Nc2n[nH]c(N)n2)cc1S(F)(F)(F)(F)F` [Compound I-85, 4-(5-Amino-1H-[1,2,4]triazol-3-ylamino)-2-pentafluorosulfur-benzonitrile]?
EC50 [1]: 0.287 µM; EC50 [2]: > 10 µM

Which EC50 [1] does the source give for `N#Cc1c(F)cc(Nc2n[nH]c(N)n2)cc1S(F)(F)(F)(F)F` [Compound I-86, 4-(5-Amino-1H-[1,2,4]triazol-3-ylamino)-2-fluoro-6-pentafluorosulfur-benzonitrile] here?
The EC50 was 0.104 µM.

What about the EC50 [2] of the same compound?
The EC50 was over 10 µM.

What does the source list for `N#Cc1c(NN)cc(Nc2n[nH]c(N)n2)cc1S(F)(F)(F)(F)F` [Compound I-87, 4-(5-Amino-1H-[1,2,4]triazol-3-ylamino)-2-hydrazino-6-pentafluorosulfur-benzonitrile]?
EC50 [1]: 1.65 µM; EC50 [2]: > 10 µM

`Nc1nc(Nc2cc(Cl)c(Cc3nnn[nH]3)c(C(F)(F)F)c2)n[nH]1` [Compound I-90, N3-(4-((1H-tetrazol-5-yl)methyl)-3-chloro-5-(trifluoromethyl)phenyl)-1H-1,2,4-triazole-3,5-diamine] was tested. Which EC50 [2] did it give?
The EC50 was 100 µM.

And the EC50 [3]?
The EC50 was 24.4 µM.
